Consider four molecules from PMC12062363, “Phytochemical analysis and neuroprotective potential of Achillea santolina L. fractions” (Scientific Reports, 2025).

One test deals with T1, COX-2 enzyme (Homo sapiens, UniProt P35354).
T1 sequence (P35354 18-604): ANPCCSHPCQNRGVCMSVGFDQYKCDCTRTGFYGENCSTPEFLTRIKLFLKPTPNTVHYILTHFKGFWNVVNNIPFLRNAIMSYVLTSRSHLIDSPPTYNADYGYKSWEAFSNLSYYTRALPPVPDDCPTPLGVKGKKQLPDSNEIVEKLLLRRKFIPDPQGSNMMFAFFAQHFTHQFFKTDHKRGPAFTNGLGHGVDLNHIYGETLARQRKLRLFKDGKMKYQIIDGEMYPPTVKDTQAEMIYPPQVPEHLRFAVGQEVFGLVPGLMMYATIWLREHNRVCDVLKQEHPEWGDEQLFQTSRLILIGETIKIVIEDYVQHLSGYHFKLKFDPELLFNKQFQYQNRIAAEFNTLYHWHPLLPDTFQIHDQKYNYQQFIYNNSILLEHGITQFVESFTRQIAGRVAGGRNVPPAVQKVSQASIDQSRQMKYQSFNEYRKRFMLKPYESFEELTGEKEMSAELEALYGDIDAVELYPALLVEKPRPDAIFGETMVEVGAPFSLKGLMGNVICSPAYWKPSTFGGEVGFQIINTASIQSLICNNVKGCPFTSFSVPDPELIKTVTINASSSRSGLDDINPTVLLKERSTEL
Briefly: biochemical. The format is biochemical. To be noted: three replicates.

For another test, the target named is T2, 5-LOX (Homo sapiens, UniProt P09917).
T2 sequence (P09917 1-674): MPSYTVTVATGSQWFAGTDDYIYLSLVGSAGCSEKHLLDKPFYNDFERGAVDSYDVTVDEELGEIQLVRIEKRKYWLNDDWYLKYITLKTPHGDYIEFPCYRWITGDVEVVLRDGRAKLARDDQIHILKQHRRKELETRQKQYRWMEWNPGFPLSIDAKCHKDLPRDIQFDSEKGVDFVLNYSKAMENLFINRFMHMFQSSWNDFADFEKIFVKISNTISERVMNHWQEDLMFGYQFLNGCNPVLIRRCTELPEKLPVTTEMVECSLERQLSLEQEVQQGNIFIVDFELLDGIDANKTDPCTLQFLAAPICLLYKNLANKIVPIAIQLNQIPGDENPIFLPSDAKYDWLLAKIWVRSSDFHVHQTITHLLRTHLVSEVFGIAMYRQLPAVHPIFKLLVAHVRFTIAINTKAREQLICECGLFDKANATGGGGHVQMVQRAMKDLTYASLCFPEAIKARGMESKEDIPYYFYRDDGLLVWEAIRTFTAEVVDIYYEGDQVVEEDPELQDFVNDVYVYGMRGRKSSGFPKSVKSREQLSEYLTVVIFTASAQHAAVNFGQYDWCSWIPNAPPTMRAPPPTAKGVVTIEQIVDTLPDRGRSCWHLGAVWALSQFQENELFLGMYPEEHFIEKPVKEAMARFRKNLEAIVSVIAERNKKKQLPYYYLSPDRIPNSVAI
Nature of the test: In vitro lipoxygenase (5-LOX) inhibitory activity. Type of test: biochemical. To be noted: three replicates.

Test [1] relates to cerebral cortex and hippocampus of MSG-treated rats. Briefly: Brain histopathology (H&E) in MSG-induced neurotoxicity in rats. The format is in vivo, Wistar rats. As to conditions: standard 30 mg/kg orally, 14 days.
Experimental: One day post the last dose, rats were anesthetized using ketamine 90 mg i.p and Blood was drawn from the Orbital sinus[22] followed by euthanizing of all rats[22]. […] The whole brains were expunged, washed with cold saline, wiped with filter paper, and split into two portions(hemispheres): one hemisphere was used for histopathological examinations following formalin fixation, however the other hemisphere was snap-frozen in liquid nitrogen and kept at − 80 °C to be used for biochemical assessment (MDA, GSH and TNF-α) and for RNA extraction. Samples were assayed in triplicates[2].
Brain specimens were preserved in 10% neutral buffered formalin followed by processing in increasing concentrations of ethanol and xylene. […]
For test [2], the system named is Tumor necrosis factor alpha. Briefly: TNF-α immunohistochemistry in cerebral cortex, MSG-induced neurotoxicity in rats. The format is in vivo, Wistar rats. As to conditions: standard 30 mg/kg orally, 14 days. As to the method:
Sixty-three rats were randomly allocated into nine experimental groups (n = 7): Control Group; served as negative control that received distilled water (DW) at the volume of 1 ml/rat orally via an intragastric tube once a day for 14 days. MSG Group, served as control positive where rats received DW at the volume of 0.5 mL/rats orally + 2 g/kg weight MSG dissolved in normal saline at the volume of 0.5 mL/rats orally via an intragastric tube once a day for 14 days[21]. Treated groups received MSG same way as MSG group along with various treatments as following: AS 200, 400 Groups; received Achillea santolina methanolic extract at doses of 200, 400 mg/kg, respectively. MF 200,400; received methylene chloride fraction of Achillea santolina extract with the same two doses and volume suspended in DW, BF 200, 400 received butanol fraction of Achillea santolina extract with the same two doses and volume suspended in DW, and standard group (Std): received Dextromethorphan 30 mg/kg at the volume of 0.5 mL/rats orally.
Tumor necrosis factor alpha was detected in paraffin embedded tissue by immunoperoxidase technique. Briefly, tissue sections were deparaffinized and then incubated in citrate buffer PH 6 for antigen retrieval. […] Area percent of positive staining was measured by Image J software in 3 sections/ group at 200X magnification.

Experimental for 5-LOX: All in vitro determinations were performed in triplicate and reported as mean ± standard deviation. The IC50 values were determined by transforming the concentrations to logarithmic form and applying a non-linear regression equation for inhibitors (log inhibitor) versus the normalized response-variable slope equation. […] All figures and statistical analyses were generated with GraphPad Prism version 8.0® for Windows (GraphPad Software, San Diego, California USA).
The 5-LOX inhibitory activity was determined according to a previous method ^7. […] The IC50 of each tested sample was calculated.
Experimental for COX-2 enzyme: All in vitro determinations were performed in triplicate and reported as mean ± standard deviation. The IC50 values were determined by transforming the concentrations to logarithmic form and applying a non-linear regression equation for inhibitors (log inhibitor) versus the normalized response-variable slope equation. In vitro studies were analyzed using one-way ANOVA and Tukey’s test, with p values under < 0.05 regarded as significant. […] All figures and statistical analyses were generated with GraphPad Prism version 8.0® for Windows (GraphPad Software, San Diego, California USA).
The inhibitory activity of the tested samples against COX-2 enzyme was determined colorimetrically ^6. Celecoxib was used as a reference drug.

Turning to `O=c1cc(-c2ccc(O)cc2)oc2cc(O)c([C@@H]3O[C@H](CO)[C@@H](O)[C@H](O)[C@H]3O)c(O)c12` [Isovitexin, Apigenin 6-C-β-glucopyranoside], the “COX-2 inhibitory activity IC50” value at COX-2 enzyme is on record as “most powerful”. The “5-LOX inhibitory potential IC50” value at 5-LOX is reported as “highest inhibitory potential”. With `O=c1c(O[C@@H]2O[C@H](CO)[C@@H](O)[C@H](O)[C@H]2O)c(-c2ccc(O)cc2)oc2cc(O)cc(O)c12` [Kaempferol-3-O-glucoside, Kaempferol 3-O-β-glucopyranoside], the IC50 on 5-LOX (read-out: 5-LOX inhibitory potential IC50) turned out to be 6.28 ± 0.16 µM.

As to `O=c1cc(-c2ccc(O)c(O)c2)oc2cc(O)cc(O)c12` [Luteolin], on COX-2 enzyme (read-out: COX-2 inhibitory activity IC50), the IC50 was found to be 12.04 ± 0.08 µM.

Consider `COc1ccc2c(c1)[C@]13CCCC[C@@H]1[C@H](C2)N(C)CC3` [dextromethorphan, Dextromethorphan], for which, in test [1], the “neuronal degeneration and gliosis, cerebral cortex” value is given as “mild”; the “neuronal degeneration and gliosis, hippocampus” value is reported as “mild”. For the same molecule, the “TNF-α expression in cerebral cortex (immunohistochemistry)” value in test [2] is “weak”.

The IC50 is the concentration needed to halve the response being measured.
